Measurements published in US8492347B2, “Peptide for induction of immune tolerance as treatment for systemic lupus erythematosus” (The Regents of the University of California, priority 2007, dated 2013).

What was measured:
[1] = tested on: BWF1 mice; assay: survival and clinical disease in BWF1 mice given L-pCons intravenously; assay type: in vivo; details: 1 mg i.v. monthly from age 10 weeks
Protocol: FIG. 3 provides a graph of data showing the suppression of clinical disease that occurs in BWF1 mice treated monthly from age 10 weeks with 1 mg of L-pCons administered intravenously.
For tolerance induction, ten-to-twelve week-old BWF1 mice received a single i.v. dose of 1 mg of one of the peptides, dissolved in saline, as reported previously (see, e.g. Singh et al., J Clin Invest 1995; 96:2990-6). Controls in selected experiments were either treated with saline or control peptides.
Using 50% mortality times, the lifespan is prolonged 30-32 weeks. […] A similar study has been started with D-pCons administered orally; results are anticipated in 30 weeks. Serum is obtained at regular intervals for anti-DNA testing; urine is tested for proteinuria monthly (when 2+ appears mice are tested weekly), and survival is measured daily.
Since this increase in survival was small (6 weeks), we developed an algorithm based on 435 VH sequence peptides to create an artificial 15-mer peptide containing amino acid sequences which bind to I-Ed (one of the MHC Class II molecules in BWF1) and to be stimulatory for BWF1 T cells—which we called pConsensus or pCons. […] The control artificial 15-mer, pNegative (pNeg) was constructed to bind I-Ed but not stimulate T cells. […]

[2] = tested on: CD4+ CD25− T cells; assay: suppression of autologous CD4+ CD25− T cells by pCons-induced Treg; assay type: cell-based, human; details: 1:1 ratios
Source text: T cells were also expanded and silencing of Foxp3 by transfection with specific siRNA for Foxp3 abrogated the suppressive capacity of the induced T reg by ½ (3rd panel, FIG. 8).
Next, we studied the ability of L-pCons to induce Treg in T cells from the peripheral blood of patients with SLE (36 patients, 32 healthy controls). Stimulatory control peptides B and D are wild peptides from human mAb anti-DNA; peptide A is a nonstimulatory negative control (see, e.g. Kaki et al., Lupus 2004; 13:490-500). […] These expanded cells were regulatory (FIG. 8): they suppressed proliferation and IFNg synthesis by autologous CD4+ CD25− cells in culture. Numbers of CD4+ Foxp3+ T cells were also expanded and silencing of Foxp3 by transfection with specific siRNA for Foxp3 abrogated the suppressive capacity of the induced T reg by ½ (3rd panel, FIG. 8). […] Patients who were anti-DNA negative were unlikely to respond to pCons with expansion of Treg (see, e.g. La Cava et al, Lupus. 2008; 17(5):421-5).

FIEWNKLRFRQGLEW [L-pCons]
appearance of IgG anti-DNA in serum and of nephritis [1]: significant delay | lifespan prolonged, using 50% mortality times [1]: 30-32 weeks | effect of peptide-induced Treg on CD4+ CD25− T cells [2]: suppress proliferation and IFNg production
